According to patent US11691949B2, “Quinoline sulfonamide compounds and their use as antibacterial agents” (OTAGO INNOVATION LIMITED, priority 2017, dated 2023):
Converted amounts (≈) assume the structure as drawn. Counter-ions that a name gives are not always drawn. Like-named read-outs stand apart in the source and are kept apart here.

Key:
Type in all cases: cell-based
S. aureus ATCC 6538 [1] = experiment: MBC by Miles-Misra drop-plate method, S. aureus; details: Staphylococcus aureus
Protocol: (§1) Antibacterial susceptibility testing was performed in triplicate (biological) by measuring minimum inhibitory concentrations (MICs) by broth microdilution in 96-well flat bottom microtiter plates (ThermoFisher Scientific, New Zealand). S. uberis ATCC 19436, S. aureus ATCC 6538, or E. coli ATCC 10596 cells grown overnight were diluted to an OD600 of approximately 0.025, so that the final concentration of cells in the MIC assay was approximately 5×10^5 cfu/mL in media as follows: S. uberis; Todd Hewitt Broth (THB), S. aureus; Tryptic Soy Broth (TSB) and Cation Adjusted Muller Hinton Broth (CAMHB), and E. coli; Lysogeny Borth (LB) and CAMHB, before being dispensed into microtiter wells. As required additional sterile Zinc Sulphate (Heptahydrate) was supplemented into the media, so the final concentration was 50 μM. Test compounds were added to starting wells and two-fold serial dilutions were undertaken to generate a range of inhibitor concentrations at a final volume of 200 μl. Media and test compound-free (untreated) controls were included in each microtiter plate in triplicate. After 24 h incubation at 37° C. and 200 rpm, the OD600 of wells were read using a Varioskan Flash plate reader (ThermoFisher Scientific, New Zealand). The MIC was reported as the lowest concentration of the test compound for which no growth occurred, as determined by OD600 readings. The minimum bactericidal concentration (MBC) was determined using the Miles-Misra drop-plate method to measure the viability of cells in response to test compound challenge.

E. coli ATCC 10596 = experiment: MIC by broth microdilution, E. coli; details: Escherichia coli
Method in brief: (§2)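 Media: TSB or CAMHB for S. aureus, LB or CAMHB for E. coli, with zinc sulphate to 50 μM final where required. Cells at ~5×10^5 cfu/mL met two-fold compound series; growth was scored by OD600 after 24 h shaking at 37° C.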

E. coli ATCC 10536 = experiment: MBC by Miles-Misra drop-plate method, E. coli; details: Escherichia coli
Protocol: as §1

S. uberis ATCC 19436 [2] = experiment: MIC by broth microdilution, S. uberis; details: Streptococcus uberis
Method in brief: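 Streptococcus uberis ATCC 19436 was tested in Todd Hewitt Broth by broth microdilution in 96-well flat bottom plates, in biological triplicate. Overnight cells were diluted to OD600 of approximately 0.025, giving about 5×10^5 cfu/mL in the wells. Compounds were serially diluted two-fold to 200 μl, incubated 24 h at 37° C. and 200 rpm, and the MIC was taken from OD600.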

S. aureus ATCC 6538 [3] = experiment: MIC by broth microdilution, S. aureus; details: Staphylococcus aureus
Method in brief: as §2

S. uberis ATCC 19436 [4] = experiment: MBC by Miles-Misra drop-plate method, S. uberis; details: Streptococcus uberis
Protocol: as §1

[5] = ATCC6538, read-out: S. aureus ATCC 6538 MBC, No Zinc
[6] = ATCC6538, read-out: S. aureus ATCC 6538 MBC, Zinc (50 μM)
[7] = ATCC 10536 / ATCC 10596, No Zinc, read-out: E. coli ATCC 10536 MIC
[8] = ATCC 10536 / ATCC 10596, Zinc (50 μM), read-out: E. coli ATCC 10536 MIC
[9] = ATCC10536, read-out: E. coli ATCC 10536 MBC, No Zinc
[10] = ATCC10536, read-out: E. coli ATCC 10536 MBC, Zinc (50 μM)
[11] = ATCC19436, No Zinc, read-out: S. uberis ATCC 19436 MIC
[12] = ATCC19436, Zinc (50 μM), read-out: S. uberis ATCC 19436 MIC
[13] = ATCC6538, No Zinc, read-out: S. aureus ATCC 6538 MIC
[14] = ATCC6538, Zinc (50 μM), read-out: S. aureus ATCC 6538 MIC
[15] = ATCC19436, read-out: S. uberis ATCC 19436 MBC, No Zinc
[16] = ATCC19436, read-out: S. uberis ATCC 19436 MBC, Zinc (50 μM)
[17] = ATCC6538, No Zinc, read-out: S. aureus ATCC 6538 MBC
[18] = ATCC6538, Zinc (50 μM), read-out: S. aureus ATCC 6538 MBC
[19] = ATCC10536, No Zinc, read-out: E. coli ATCC 10536 MBC
[20] = ATCC10536, Zinc (50 μM), read-out: E. coli ATCC 10536 MBC
[21] = ATCC19436, No Zinc, read-out: S. uberis ATCC 19436 MBC
[22] = ATCC19436, Zinc (50 μM), read-out: S. uberis ATCC 19436 MBC

SMILES | MIC (E. coli ATCC 10596; [7]) | MIC (E. coli ATCC 10596; [8]) | MIC (S. uberis ATCC 19436 [2]; [11]) | MIC (S. uberis ATCC 19436 [2]; [12]) | MIC (S. aureus ATCC 6538 [3]; [13]) | MIC (S. aureus ATCC 6538 [3]; [14]) | MBC (S. aureus ATCC 6538 [1]; [17]) | MBC (S. aureus ATCC 6538 [1]; [18]) | MBC (E. coli ATCC 10536; [19]) | MBC (E. coli ATCC 10536; [20]) | MBC (S. uberis ATCC 19436 [4]; [21]) | MBC (S. uberis ATCC 19436 [4]; [22]) | further results
O=C(N/N=C/c1ccc2cccc(NS(=O)(=O)c3ccc(C(F)(F)F)cc3)c2n1)C1CCCNC1 (mixture of isomers) [ZDR124, (E/Z)—N-(2-((2-(Piperidine-3-carbonyl)hydrazineylidene)methyl)quinolin-8-yl)-4-(trifluoromethyl)benzenesulfonamide trifluoroacetate] | 128 µg/mL | 32 µg/mL | 32 µg/mL | 16 µg/mL | 16 µg/mL | 16 µg/mL |  |  |  |  |  |  | MBC (S. aureus ATCC 6538 [1]; [5]): > 256 µg/mL; MBC (S. aureus ATCC 6538 [1]; [6]): > 256 µg/mL; MBC (E. coli ATCC 10536; [9]): 128 µg/mL; MBC (E. coli ATCC 10536; [10]): 32 µg/mL; MBC (S. uberis ATCC 19436 [4]; [15]): 16 µg/mL; MBC (S. uberis ATCC 19436 [4]; [16]): 16 µg/mL
CN(C)Cc1ccc2cccc(NS(=O)(=O)c3ccc(C(F)(F)F)cc3)c2n1.Cl [ZDR022-HCl, N-(2-((Dimethylamino)methyl)quinolin-8-yl)-4-(trifluoromethyl)-benzenesulfonamide HCl] | > 256 µg/mL | > 256 µg/mL | 256 µg/mL | 0.125 µg/mL | 64 µg/mL | 4 µg/mL | 128 µg/mL | 256 µg/mL | > 256 µg/mL | > 256 µg/mL | > 256 µg/mL | 0.125 µg/mL | 
CN(C)CCCNCc1ccc2cccc(NS(=O)(=O)c3ccc(C(F)(F)F)cc3)c2n1 [ZDR090, N-(2-(((3-(Dimethylamino)propyl)amino)methyl)quinolin-8-yl)-4-(trifluoromethyl)benzenesulfonamide di-trifluoroacetate] |  |  |  |  |  |  |  |  |  |  |  |  | MBC (S. aureus ATCC 6538 [1]; [5]): 16 µg/mL (≈ 34.3 µM); MBC (S. aureus ATCC 6538 [1]; [6]): 32 µg/mL (≈ 68.6 µM); MIC (E. coli ATCC 10596; ATCC 10536 / ATCC 10596, read-out: E. coli ATCC 10536 MIC, No Zinc): 16 µg/mL (≈ 34.3 µM); MIC (E. coli ATCC 10596; ATCC 10536 / ATCC 10596, read-out: E. coli ATCC 10536 MIC, Zinc (50 μM)): 16 µg/mL (≈ 34.3 µM); MBC (E. coli ATCC 10536; [9]): 16 µg/mL (≈ 34.3 µM); MBC (E. coli ATCC 10536; [10]): 16 µg/mL (≈ 34.3 µM); MIC (S. uberis ATCC 19436 [2]; ATCC19436, read-out: S. uberis ATCC 19436 MIC, No Zinc): 4 µg/mL (≈ 8.57 µM); MIC (S. uberis ATCC 19436 [2]; ATCC19436, read-out: S. uberis ATCC 19436 MIC, Zinc (50 μM)): 0.5 µg/mL (≈ 1.07 µM); MIC (S. aureus ATCC 6538 [3]; ATCC6538, read-out: S. aureus ATCC 6538 MIC, No Zinc): 16 µg/mL (≈ 34.3 µM); MIC (S. aureus ATCC 6538 [3]; ATCC6538, read-out: S. aureus ATCC 6538 MIC, Zinc (50 μM)): 16 µg/mL (≈ 34.3 µM); MBC (S. uberis ATCC 19436 [4]; [15]): 8 µg/mL (≈ 17.1 µM); MBC (S. uberis ATCC 19436 [4]; [16]): 0.5 µg/mL (≈ 1.07 µM)
O=S(=O)(Nc1cccc2ccc(CNCCc3ccccn3)nc12)c1ccc(C(F)(F)F)cc1 [ZDR095, N-(2-(((2-(Pyridin-2-yl)ethyl)amino)methyl)quinolin-8-yl)-4-(trifluoromethyl)benzenesulfonamide] | 128 µg/mL (≈ 263 µM) | > 256 µg/mL | > 256 µg/mL | 0.125 µg/mL (≈ 0.257 µM) | 64 µg/mL (≈ 132 µM) | 8 µg/mL (≈ 16.4 µM) | > 128 µg/mL | > 256 µg/mL | 128 µg/mL (≈ 263 µM) | 256 µg/mL (≈ 526 µM) | > 256 µg/mL | 1 µg/mL (≈ 2.06 µM) | 

Now from value to molecule, other results behind:

MIC (E. coli ATCC 10596; [7]) | MIC (E. coli ATCC 10596; [8]) | MIC (S. uberis ATCC 19436 [2]; [11]) | MIC (S. uberis ATCC 19436 [2]; [12]) | MIC (S. aureus ATCC 6538 [3]; [13]) | MIC (S. aureus ATCC 6538 [3]; [14]) | SMILES | MBC (S. aureus ATCC 6538 [1]; [17]) | MBC (S. aureus ATCC 6538 [1]; [18]) | MBC (E. coli ATCC 10536; [19]) | MBC (E. coli ATCC 10536; [20]) | MBC (S. uberis ATCC 19436 [4]; [21]) | MBC (S. uberis ATCC 19436 [4]; [22]) | further results
256 µg/mL (≈ 583 µM) | 256 µg/mL (≈ 583 µM) | 32 µg/mL (≈ 72.8 µM) | 0.125 µg/mL (≈ 0.284 µM) | 64 µg/mL (≈ 146 µM) | 32 µg/mL (≈ 72.8 µM) | O=S(=O)(Nc1cccc2ccc(CNCCCO)nc12)c1ccc(C(F)(F)F)cc1 [ZDR091, N-(2-(((3-Hydroxypropyl)amino)methyl)quinolin-8-yl)-4-(trifluoromethyl)benzenesulfonamide] | > 256 µg/mL | 128 µg/mL (≈ 291 µM) | 256 µg/mL (≈ 583 µM) | 128 µg/mL (≈ 291 µM) | 16 µg/mL (≈ 36.4 µM) | 0.5 µg/mL (≈ 1.14 µM) | 
> 256 µg/mL | > 256 µg/mL | 64 µg/mL (≈ 141 µM) | 16 µg/mL (≈ 35.1 µM) | 32 µg/mL (≈ 70.3 µM) | 32 µg/mL (≈ 70.3 µM) | O=S(=O)(Nc1cccc2ccc(CNC(CO)CO)nc12)c1ccc(C(F)(F)F)cc1 [ZDR092, N-(2-(((1,3-Dihydroxypropan-2-yl)amino)methyl)quinolin-8-yl)-4-(trifluoromethyl)benzenesulfonamide] | 256 µg/mL (≈ 562 µM) | 32 µg/mL (≈ 70.3 µM) | 256 µg/mL (≈ 562 µM) | > 256 µg/mL | 64 µg/mL (≈ 141 µM) | 8 µg/mL (≈ 17.6 µM) | 
256 µg/mL (≈ 527 µM) | 64 µg/mL (≈ 132 µM) | 32 µg/mL (≈ 65.9 µM) | 16 µg/mL (≈ 33 µM) | 32 µg/mL (≈ 65.9 µM) | 16 µg/mL (≈ 33 µM) | O=S(=O)(Nc1cccc2ccc(CNC(CO)(CO)CO)nc12)c1ccc(C(F)(F)F)cc1 [ZDR102, N-(2-(((1,3-Dihydroxy-2-(hydroxymethyl)propan-2-yl)amino)methyl)quinolin-8-yl)-4-(trifluoromethyl)benzenesulfonamide] | 128 µg/mL (≈ 264 µM) | 32 µg/mL (≈ 65.9 µM) | 256 µg/mL (≈ 527 µM) | > 256 µg/mL | 32 µg/mL (≈ 65.9 µM) | 16 µg/mL (≈ 33 µM) | 
